Assay results from ChEMBL document CHEMBL1127865, “C-linked pyrazole biaryl tetrazoles as antagonists of angiotensin II Part II: pharmacokinetics and an efficient regioselective synthesis” (Bioorg Med Chem Lett, 1994).

Tests used:
Format in all cases: ADME, organism-based
[1] = Compound was evaluated for plasma half life in rat
[2] = Compound was evaluated for plasma clearance in rat; details: read-out: Clp
[3] = Compound was evaluated for volume of distribution in rat; details: in vivo
[4] = Oral bioavailability in rat; details: in vivo

Row | half-life [1] [h] | clearance [2] [mL/min/kg] | Vd [3] [L/kg] | bioavailability [4] [%] | Structure (SMILES)
1 | 14.8 | 0.12 | 0.16 | 26 | CCCCc1nn(CCCC)c(C(=O)O)c1Cc1ccc(-c2ccccc2-c2nn[nH]n2)cc1
2 | 12.3 | 0.2 | 0.2 | 58 | CCCCc1nn(CC2CC2)c(C(=O)O)c1Cc1ccc(-c2ccccc2-c2nn[nH]n2)cc1
